A short description of this series: gradient 5% acetonitrile 3 min, to 50% in 2 min, to 85% in 15 min, held 3 min, 100 µL/min. The following applies: column: Zorbax Extend-C18 2.1 x 50 mm; eluents: water / acetonitrile, 0.1% formic acid. The method, boiled down:
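Retention times of pure standards were taken from adduct peaks that were selected by computer and manually inspected. Over 3 months, mixtures of ~100 molecules were run by HPLC–quadrupole time-of-flight mass spectrometry in positive and negative ionization mode. The Zorbax Extend-C18 column (2.1 × 50 mm, 1.8 μm) ran at 100 μL/min in water and acetonitrile, each containing 0.1% formic acid, with 40 μL dead volume and 900 μL dwell volume.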
In the case of `CCOc1ccc(N2C(=O)C3N=NN(Cc4nc(-c5ccccc5OCC)no4)C3C2=O)cc1` (centres undefined), the RP-LC retention time was 980 s.

In turn, `COc1ccc(-c2cn3ccn(-c4cc(C)c(Cl)cc4OC)c(=O)c3n2)cc1` gave an RP-LC retention time of 924 s.

Compound `CCN1C(=O)C2(CCN(S(=O)(=O)c3ccc(CC(C)C)cc3)CC2)c2ccccc21` yielded an RP-LC retention time of 587 s.

On to `CCc1ccc(-c2cc3c(=O)n(Cc4noc(CN5CCCCC5C)n4)ccn3n2)cc1` (centres undefined), for which the RP-LC retention time was found to be 761 s.

Compound `CCN(C1CCOCC1)C1CN(S(=O)(=O)c2cccc(F)c2)C1` registered an RP-LC retention time of 597 s.

`COCCN1C(=O)Cc2ccccc2C1C(=O)NCc1ccc(SC)cc1` (centres undefined) had an RP-LC retention time of 771 s.

Regarding `CC1CCN(C(=O)c2ccc(CN3C(=O)C4CCCN4C(=O)c4ccccc43)cc2)CC1` (centres undefined), the RP-LC retention time was found to be 790 s.

Turning to `CC1CCCN(C(=O)c2cn(-c3cc(-c4nc(C5CC5)no4)ccn3)cn2)C1` (centres undefined), the RP-LC retention time was 887 s.

The compound `Cc1nc(C2(C)CCN(S(=O)(=O)c3ccc(C(C)(C)C)cc3)CC2)no1` yielded an RP-LC retention time of 1080 s.

`CCCCN(CCCNC(=O)C1CCN(S(=O)(=O)CC)CC1)c1ccccc1` registered an RP-LC retention time of 645 s.

`CCOC(=O)c1c(S(=O)(=O)N2CCC(C(=O)NC(C)CC)CC2)c(C)n(C)c1C` (centres undefined) registered an RP-LC retention time of 747 s.

In turn, `Cn1c(=O)n(CC(=O)N2CCCC2)c(=O)c2cnc(-c3ccc(Cl)cc3)nc21` gave an RP-LC retention time of 924 s.

`O=C(CN1C(=O)C2CCCCN2c2ccc(C(=O)N3CCCCC3)cc21)N1CCc2ccccc2C1` (centres undefined) had an RP-LC retention time of 921 s.

As to `Cn1cc(CN2C[C@@H](COc3cccnc3)[C@H](c3ccccn3)C2)cn1`, the RP-LC retention time worked out at 528 s.

Compound `CN(C(=O)C1CCCN(c2ncnc3c2nc2n3CCCCC2)C1)c1ccccc1F` (centres undefined) yielded an RP-LC retention time of 785 s.

As to `Cc1ccc(F)cc1NC(=O)Cn1nc2c(Oc3cccc(F)c3)nccn2c1=O`, the RP-LC retention time is 829 s.

As for `Cc1sc2ccn(C)c(=O)c2c1C(=O)NC(C)c1ccc(F)cc1` (centres undefined), the RP-LC retention time is 779 s.

Regarding `COc1ccc(OC)c(-c2nnc(NC(=O)CSc3ccc(Cl)cc3)s2)c1`, the RP-LC retention time is 947 s.

As to `COc1ccc(S(=O)(=O)N(C)CCCC(=O)O)cc1N(C)S(C)(=O)=O`, the RP-LC retention time came to 633 s.

As to `Cc1nc(-c2cc(S(=O)(=O)NCCCN3CCC(C)CC3)c(C)s2)sc1C`, the RP-LC retention time was 699 s.

With `Cc1cccc(OCCc2noc(C3CN(S(=O)(=O)N(C)C)C3)n2)c1`, the RP-LC retention time was determined as 950 s.

As for `CCc1nc2onc(C)c2c(=O)n1CC(=O)NCCC1=CCCCC1`, the RP-LC retention time was determined as 899 s.

Regarding `O=C(NCC1CCCO1)C1CCN(C(=O)c2ncn3c2COC(c2ccccc2)C3)CC1` (centres undefined), the RP-LC retention time turned out to be 649 s.

For `O=C(c1cn2ccccc2n1)N1CCN(c2ccc(F)cc2)CC1`, the RP-LC retention time is 652 s.

Take `CCCN(CC1CCOC1)C(=O)c1cc(F)ccc1Cl` (centres undefined): the RP-LC retention time was 821 s.

In the case of `CCc1ccc(C(=O)N2CCC3(C2)C(=O)N(C)c2ccccc23)cc1` (centres undefined), the RP-LC retention time stood at 861 s.

`O=C(Nc1ccc2c(c1)OCO2)C1CCN(C(=O)c2cccc(F)c2)CC1`: the RP-LC retention time worked out at 753 s.

`COc1ccc(OC)c(CNC(=O)CN2C(=O)CSc3cccn3-c3ccccc32)c1` yielded an RP-LC retention time of 914 s.

`CCc1ccc(NC(=O)CN2C(=O)CCCc3cc(S(=O)(=O)N4CCCC4)ccc32)cc1` showed an RP-LC retention time of 918 s.

`CC(=O)N1CCN(Cc2nc(-c3ccc(N4CCCC(C)C4)nc3)no2)CC1` (centres undefined) had an RP-LC retention time of 669 s.

`O=C(c1cccs1)N1CCN(c2cc(Cl)ccc2Cl)CC1` registered an RP-LC retention time of 1020 s.

As to `CC(NC(=O)c1ccco1)C(=O)NCc1nn(C(C)C)c2ccccc12` (centres undefined), the RP-LC retention time worked out at 712 s.

Compound `O=C(Cn1ccc2sccc2c1=O)NCc1ccccc1F` registered an RP-LC retention time of 785 s.

On to `O=C(Cc1csc2nc(-c3cccc(Br)c3)cn12)Nc1ccc(F)cc1`, for which the RP-LC retention time is 959 s.

The compound `Cc1cccc(NC(=O)C2CCCN(c3cc(=O)n(C)c(=O)n3C)C2)c1` (centres undefined) showed an RP-LC retention time of 735 s.

`Cc1nc(-c2csc(S(=O)(=O)N3CCC(C(=O)NCc4ccccc4)CC3)c2)no1` had an RP-LC retention time of 844 s.

With `O=C1CC(c2nc(-c3ccc4c(c3)OCO4)no2)CN1c1ccc(F)cc1` (centres undefined), the RP-LC retention time came out at 923 s.

On to `COc1cccc(N2CCN(C(=O)C3CCN(c4cncnc4N(C)C)CC3)CC2)c1`, for which the RP-LC retention time is 648 s.

Compound `CC(=O)N1CCN(c2nc3c(s2)CC(C(=O)Nc2cccc(Cl)c2)CC3)CC1` (centres undefined) had an RP-LC retention time of 628 s.

As to `COc1ccc(CCNC(=O)c2nc(CCS(=O)(=O)c3ccccc3)no2)cc1OC`, the RP-LC retention time is 754 s.

Regarding `Cc1noc(-c2ccc(-n3cnc(C(=O)NCCc4ccccc4)c3)nc2)n1`, the RP-LC retention time came out at 678 s.

`COc1cc(-c2nc3c(C)cccn3c2Nc2ccc(C)cc2)ccc1O` showed an RP-LC retention time of 684 s.

For `Cc1cc(N2CCN(C(=O)c3cccc(C(F)(F)F)c3)CC2)nc2nnc(C)n12`, the RP-LC retention time was 649 s.

In turn, `COCCNC(=O)c1ccc(-c2ccc(N3CCCCC3)nc2)cc1` returned an RP-LC retention time of 603 s.

The compound `Cc1nc2ccc3nc(NC(=O)c4snnc4C)sc3c2s1` had an RP-LC retention time of 772 s.

Consider `CCN1C(=O)COc2ccc(-c3nc(NC(=O)c4ccccc4)sc3C)cc21`, for which the RP-LC retention time came to 1030 s.

In turn, `COc1ccc(S(=O)(=O)NCCS(=O)(=O)N2CCN(c3ccccc3)CC2)cc1` yielded an RP-LC retention time of 849 s.

In turn, `CC1=C(c2ccc(C)cc2)S(=O)(=O)N=C1N1CCCN(C(=O)c2ccsc2)CC1` gave an RP-LC retention time of 821 s.

As to `CCCNC(=O)C1CCN(c2nc3ccsc3c(=O)n2-c2cccc(OC)c2)CC1`, the RP-LC retention time turned out to be 675 s.

In turn, `COc1ccc(OC(=O)c2cn(CC(C)C)c(=O)c3ccccc23)cc1` came in with an RP-LC retention time of 1180 s.

The compound `CN(C)c1nn(CC(=O)Nc2ccc(F)cc2Cl)c(=O)c2ccccc12` came in with an RP-LC retention time of 913 s.

As to `Cc1ccc(Cn2c(=O)c3sccc3n(Cc3nc(-c4ccccc4)no3)c2=O)cc1`, the RP-LC retention time turned out to be 1150 s.

For the compound `O=C(Cc1ccc2c(c1)OCO2)N(CC1CCCO1)c1nc2c(F)cc(F)cc2s1` (centres undefined), the RP-LC retention time came to 1180 s.

`CNC(=O)C1CCCN(c2nc3ncn(CC(=O)NCCc4ccc(Cl)cc4)c(=O)c3s2)C1` (centres undefined): the RP-LC retention time was 681 s.

Consider `Cn1c(N2CCN(C(=O)c3cc4ccccc4[nH]3)CC2)cc(=O)n(C)c1=O`, for which the RP-LC retention time was found to be 691 s.

As for `Cc1ccc(NC(=O)CN2CCC(C(=O)NCc3c(F)cccc3F)CC2)c(C)c1`, the RP-LC retention time stood at 585 s.

In turn, `Cc1sc2cc(C(=O)NCCN3CCOCC3)[nH]c2c1CN1CCCCC1` had an RP-LC retention time of 551 s.

`Cn1cnc2c(C(=O)Nc3ccc(F)cc3)nn(-c3ccc(Cl)cc3)c2c1=O` gave an RP-LC retention time of 956 s.

As for `CCOC(=O)c1ccc(NC(=O)Cn2c(=O)n(CC)c(=O)c3c2cc(C)n3C)cc1`, the RP-LC retention time came to 771 s.

With `CC(C)CC(NC(=O)Cc1ccc(Cl)cc1)C(=O)Nc1nc2ccccc2[nH]1` (centres undefined), the RP-LC retention time was determined as 767 s.

Take `O=C(Nc1nnc(Cc2cccs2)o1)c1cc(Cl)sc1Cl`: the RP-LC retention time was 831 s.

`Cc1cc(=O)n(CC(=O)Nc2ccc(F)c(F)c2)c(N2CCCCC2)n1` returned an RP-LC retention time of 700 s.

`COc1ccc(C2=Nc3ccccc3N(CC(=O)Nc3cc(OC)ccc3OC)C(=O)C2)cc1`: the RP-LC retention time came to 1020 s.

In the case of `COc1cccc(NC(=O)N2CCc3nc(-c4ccccc4)ncc3C2)c1`, the RP-LC retention time worked out at 884 s.

`FC1(c2nc(Cc3ccccc3)no2)CCN(Cc2ccoc2)CC1` returned an RP-LC retention time of 693 s.

In the case of `COc1ccc(N2CCN(C(=O)C3CC(=O)N(c4ccc5oc(C)nc5c4)C3)CC2)cc1` (centres undefined), the RP-LC retention time stood at 678 s.

As for `COc1ccccc1-c1nc2cnccn2c1NCCC(=O)Nc1cc(F)ccc1F`, the RP-LC retention time came out at 723 s.

Turning to `COc1c(C(=O)N2CCN(CC(C)C)CC2)sc2cc(Cl)ccc12`, the RP-LC retention time turned out to be 697 s.

`O=C(c1cccc(Cl)c1)N1CCN(c2nc(CN3CCOCC3)cs2)CC1` came in with an RP-LC retention time of 623 s.

For the compound `COc1ccc(NC(=O)Cn2cnc3c(sc4nc(-c5ccccc5)ccc43)c2=O)cc1`, the RP-LC retention time is 967 s.

As for `COc1ccc(-c2csc3nc[nH]c(=O)c23)cc1`, the RP-LC retention time is 671 s.

Turning to `Cc1coc(C)c1C(=O)Nc1ncc(Cc2ccc(Cl)cc2)s1`, the RP-LC retention time amounted to 1020 s.

Regarding `COc1ccc(C2(C(=O)N3CC(N(Cc4ccncc4)CC4CC4)C3)CCCCC2)cc1`, the RP-LC retention time was determined as 755 s.

The compound `COc1cc(C(=O)N(Cc2ccc(N(C)C)cc2)CC2CCCO2)cc(OC)c1OC` (centres undefined) yielded an RP-LC retention time of 659 s.

Consider `CC(C)c1ccc(Nc2c(-c3ccc(Cl)cc3)nc3cnccn23)cc1`, for which the RP-LC retention time is 1190 s.

Compound `Cc1cccc(Sc2nccnc2N2CCCC(C(=O)NCc3ccc4c(c3)OCO4)C2)c1` (centres undefined) displayed an RP-LC retention time of 1030 s.

Take `Cc1ccc(C(=O)NC2CCN(c3nnc4ccccn34)CC2)cc1N1CCCC1=O`: the RP-LC retention time worked out at 596 s.

For `Cc1ccc(NS(=O)(=O)c2cn(CC(C)C)c3ncccc23)cc1`, the RP-LC retention time turned out to be 986 s.

In the case of `C[C@H]1CCC/C=C/[C@@H]2C[C@H](O)C[C@H]2[C@H](O)/C=C/C(=O)O1`, the RP-LC retention time amounted to 782 s.
